In patent US20190119282A1, “IMIDAZOPYRIDAZINES USEFUL AS INHIBITORS OF THE PAR-2 SIGNALING PATHWAY” (Vertex Pharmaceuticals Incorporated, priority 2013, published 2019):

Legend:
[1] = target: T1, PAR2 (HT-29 cells, SLIGKV activation) (Homo sapiens, UniProt P55085); assay: Ca FLIPR TETRA assay, ANTAGONIST mode, stimulation with 8 μM SLIGKV; format: cell-based; conditions: for IC50: HT-29 cells, stimulation with 8 μM SLIGKV
T1 construct: host or cells: HT-29 cells
T1 sequence (P55085 26-397): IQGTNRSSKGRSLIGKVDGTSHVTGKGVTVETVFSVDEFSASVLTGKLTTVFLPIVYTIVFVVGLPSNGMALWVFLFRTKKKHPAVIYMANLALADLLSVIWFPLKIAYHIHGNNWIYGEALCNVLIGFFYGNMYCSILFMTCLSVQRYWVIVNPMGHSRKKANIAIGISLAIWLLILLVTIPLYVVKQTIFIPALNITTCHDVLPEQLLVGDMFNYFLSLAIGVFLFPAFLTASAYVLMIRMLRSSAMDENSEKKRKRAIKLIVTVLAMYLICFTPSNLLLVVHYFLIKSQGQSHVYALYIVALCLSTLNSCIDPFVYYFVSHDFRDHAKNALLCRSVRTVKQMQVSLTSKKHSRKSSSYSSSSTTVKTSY
Summary of the method: (§1)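 HT-29 cells in 1% FBS/McCoy's overnight, loaded with Calcium 5 dye; compounds added and read first for intrinsic Ca2+ activation, then incubated 30 min at r.t. Antagonism read on FLIPR Tetra after stimulation with final 8 μM SLIGKV, 3.1 U/mL trypsin, 1 U/mL thrombin or 0.6 μM UTP.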

[2] = target: T2, PAR2 (HT-29 cells, trypsin activation) (Homo sapiens, UniProt P55085); assay: Ca FLIPR TETRA assay, ANTAGONIST mode, stimulation with 3.1 U/mL trypsin; format: cell-based; conditions: HT-29 cells, stimulation with 3.1 U/mL trypsin
T2 construct: host or cells: HT-29 cells
T2 sequence (P55085 26-397): T1 sequence (P55085 26-397)
Summary of the method: as §1

[3] = system: Thrombin-stimulated Ca2+ response in HT-29 cells; assay: Ca FLIPR TETRA assay, ANTAGONIST mode, stimulation with 1 U/mL Thrombin; format: cell-based, human; conditions: Homo sapiens, HT-29 cells, stimulation with 1 U/mL Thrombin
Summary of the method: as §1

[4] = system: UTP-stimulated Ca2+ response in HT-29 cells; assay: Ca FLIPR TETRA assay, ANTAGONIST mode, stimulation with 0.6 μM UTP; format: cell-based, human; conditions: Homo sapiens, HT-29 cells, stimulation with 0.6 μM UTP
Summary of the method: as §1

| SMILES | IC50 ([1]; antagonist mode) [nM] | IC50 ([2]; antagonist mode) [nM] | IC50 ([3]; antagonist mode) [nM] | IC50 ([4]; antagonist mode) [nM] | IC50 [1] [nM] | IC50 [2] [nM] | IC50 [3] [nM] | IC50 [4] [nM] | SLIGKV % @ concentration ([1]; @ 0.069 (μM)) [% @ 0.069] | SLIGKV % @ concentration ([1]; @ 5.6 (μM)) [% @ 5.6] |
| --- | --- | --- | --- | --- | --- | --- | --- | --- | --- | --- |
| Cc1ccc(-c2cc(C(C)C)c3nc(C(=O)N4CCN(C(=O)c5nc[nH]n5)CC4(C)C)cn3n2)cc1F [Compound I-336] | 5 | 2.8 | > 1000 | > 1000 | – | – | – | – | – | – |
| C[C@H]1CN(C(=O)c2cn3nc(-c4ccc(F)cc4)ccc3n2)CCN1C(=O)[C@H](O)CC(C)(C)C [Compound I-13, (2R)-1-[(2S)-4-[6-(4-Fluorophenyl)imidazo[1,2-b]pyridazine-2-carbonyl]-2-methyl-piperazin-1-yl]-2-hydroxy-4,4-dimethyl-pentan-1-one] | – | – | – | – | 480 | 2400 | 13000 | 13000 | – | – |
| Cc1cc(C2=Nn3cc(C(=O)N4CCNC(=O)C4(C)C)nc3C(C(C)C)C2)ccc1F (centres unmarked) [Compound I-447] | 170 | 180 | > 1000 | > 1000 | – | – | – | – | – | – |
| CC(C)c1cc(-c2ccc(Cl)cc2)nn2cc(C(=O)N3CCN(C(=O)[C@H]4C[C@@](C)(O)C4)CC3(C)C)nc12 [Compound I-541] | 1 | 1.5 | > 1000 | > 1000 | – | – | – | – | – | – |
| C[C@H]1CN(C(=O)c2cn3nc(-c4ccc(F)cc4)cc(C(F)(F)F)c3n2)CCN1C(=O)Oc1ccccc1 [Compound I-83] | – | – | – | – | – | > 50000 | > 50000 | > 50000 | 46 | – |
| CC(C)c1cc(-c2ccc(F)cc2)nn2cc(C(=O)N3CCN(C(=O)CCC(F)(F)F)[C@@H](C)C3)nc12 [Compound I-138] | – | – | – | – | 11 | 52 | > 5000 | > 5000 | – | – |
| O=C(OCc1ccccc1)N1CCN(C(=O)c2cn3nc(-c4ccc(F)cc4)cc(C(F)(F)F)c3n2)CC1 [Compound I-53] | – | – | – | – | – | 21000 | > 50000 | > 50000 | – | 55 |
| Cc1ccc(-c2cc(C(C)C)c3nc(C(=O)N4CCN(C(=O)[C@H]5C[C@@](O)(C(F)(F)F)C5)CC4(C)C)cn3n2)cc1 [Compound I-263] | 6.5 | 7.2 | 220 | > 1000 | – | – | – | – | – | – |
| CC(O)CC(=O)N1CCN(C(=O)c2cn3nc(-c4ccc(F)cc4)cc(C(C)C)c3n2)C[C@@H]1C (some centres unmarked) [Compound I-123] | – | – | – | – | 200 | 340 | > 50000 | > 50000 | – | – |
| COc1cccc(CC(=O)N2CCN(C(=O)c3cn4nc(-c5ccc(F)cc5)cc(C(C)C)c4n3)C[C@@H]2C)c1 [Compound I-132] | – | – | – | – | 3 | 5 | > 500 | > 500 | – | – |
| Cc1cc(C(=O)N2CCN(C(=O)c3cn4nc(-c5ccc(F)c(C)c5)cc(C(C)C)c4n3)C(C)(C)C2)[nH]n1 [Compound I-341] | 2.1 | 1.7 | > 1000 | > 1000 | – | – | – | – | – | – |

Further lines, results first:

| IC50 ([1]; antagonist mode) [nM] | IC50 ([2]; antagonist mode) [nM] | IC50 ([3]; antagonist mode) [nM] | IC50 ([4]; antagonist mode) [nM] | IC50 [1] [nM] | IC50 [2] [nM] | IC50 [3] [nM] | IC50 [4] [nM] | SLIGKV % @ concentration ([1]; @ 0.069 (μM)) [% @ 0.069] | SLIGKV % @ concentration ([1]; @ 5.6 (μM)) [% @ 5.6] | SMILES |
| --- | --- | --- | --- | --- | --- | --- | --- | --- | --- | --- |
| 0.9 | 1.3 | > 1000 | > 1000 | – | – | – | – | – | – | CC(C)(C)c1cc(-c2ccc(F)cc2)nn2cc(C(=O)N3CCN(C#N)C(=O)C3(C)C)nc12 [Compound I-234] |
| 1.8 | 3.7 | > 1000 | > 1000 | – | – | – | – | – | – | Cc1nnc(C(=O)N2CCN(C(=O)c3cn4nc(-c5ccc(F)c(Cl)c5)cc(C(C)(C)C)c4n3)C(C)(C)C2)o1 [Compound I-465] |
| 1.2 | 2 | > 1000 | > 1000 | – | – | – | – | – | – | CCOC(=O)/C=C/C(=O)N1CCN(C(=O)c2cn3nc(-c4ccc(F)cc4)cc(C(C)(C)C)c3n2)C(C)(C)C1 [Compound I-531] |
| 2.7 | 2.2 | > 1000 | > 1000 | – | – | – | – | – | – | CC(C)(C)c1cc(-c2ccc(Cl)cc2)nn2cc(C(=O)N3CCNC(=O)C3(C)C)nc12 [Compound I-361] |
| 8.2 | 18.6 | > 1000 | > 1000 | – | – | – | – | – | – | CC(C)c1cc(-c2ccc(F)cc2)nn2cc(C(=O)N3CCN(C(=O)c4ccncn4)CC3(C)C)nc12 [Compound I-236] |
| 5.4 | 4.5 | > 1000 | > 1000 | – | – | – | – | – | – | CCN1CCN(C(=O)c2cn3nc(-c4ccc(F)cc4)cc(C(C)(C)C)c3n2)C(C)(C)C1=O [Compound I-211] |
